Results reported in US7118744B2, “Immunogenic compositions for induction of anti-tumor immunity” (Yeda Research and Development Co., Ltd., priority 1997, dated 2006).
Ends that are not written are not given here.

Assays:
[1] = system: Meth A Sarcoma Cells; assay: Rejection of Meth A tumor challenge in immunized mice; format: in vivo; conditions: BALB/c mice immunized with 100 μg CDR-based peptide
Protocol: (a) The Meth A tumor is a transplantable 3-methylcholantrene-induced sarcoma of BALB/c origin (Old et al., 1962) that has three mutations in the p53 coding sequence (Arai et al., 1986). The cells were grown in DMEM containing 10% heat-inactivated fetal calf serum (FCS), and passaged through BALB/c mice to select for tumorogenicity. For challenge, mice were injected intradermally with 10^6 Meth A cells. […] Rejection was scored as the disappearance of the tumor mass within 20 days after tumor challenge.
To learn whether immunization with anti-p53 mAb might influence in vivo the development of a tumor bearing a mutated form of the p53 molecule, groups of BALB/c female mice were immunized as above with either mAb 240, mAb 246, mAb 421 or mAb 9E 10. The mice were challenged intradermally with 10^6 Meth A tumor cells 10 days after the boost. Non-immunized mice were also tested.
Immunization of BALB/c mice with peptides V–IX of Example 3 was carried out as described for the whole mAbs in Materials and Methods, section iv, using 100 μg of peptide, and then assayed for the development of anti-p53 antibodies.

[2] = system: p53; assay: Induction of anti-p53 antibodies in immunized mice, ELISA on wild type p53; format: in vivo, mouse; conditions: BALB/c mice immunized with 100 μg of peptide
Protocol: E Coli BL21 (DE3) cells transformed with the T7 expression vector containing regularly spliced mouse p53 cDNA were used to express wild type or mutant p53 as previously described (Shohat-Foord et at., 1991; Wolkowicz et al., 1995). For protein induction, IPTG at a final concentration of 0.4 mM was added when the cells had reached an O.D.600 of 0.8–1.0. Three hours after induction, the cells were harvested from a 200 ml culture by centrifugation, and the pellet was resuspended in 5 ml of ice-cold lysis buffer (20 mM Tris-HCl, pH: 7.4; 500 mM NaCl; 10% glycerol; 1 mM EDTA; 1 mM PMSF; 5 μg/ml leupeptine; 10 μg/ml aprotinin and 0.1% NP40). The lysate was subjected to sonication for 10 cycles of 15 s of sonication followed by 15 s of gentle swirling. The solicited sample was subjected to two cycles of freeze-thaw and then centrifuged for 10 min at 10.000× g. […]
[…] Antibodies were measured after booster immurdzation.
For the ELISA assay flat bottom maxi-sorb plates (Nunc, Roskilde, Denmark) were coated with 50 μl per well of mutant or wild type p53 at a concentration of 10 μg/ml. […] After washing, the plates were incubated with the substrate, p-nitrophenil phosphate disodium (Sigma) and read using an ELISA reader at 405 nm. Sera manifesting an O.D. reading, after substraction of the background, of 0.3 or greater, were scored as positive.

Sequence | Incidence of Rejected Tumors [1] | incidence of mice developing IgG anti-p53 antibodies (ELISA assay) [2]
AVYYCARSGSRFDYWGEGTT [Peptide VIII, includes CDR3 of the heavy chain of mAb 248] | 4/5 | –
GVYYCWQGTHSPLTFGAGTK [Peptide VI, includes CDR3 of the light chain of mAb 421] | 5/5 | 7/10
GDINPNNGYTIYNQKVKGKA [Peptide VII, includes CDR2 of the heavy chain of mAb 246] | 5/5 | –
VYFCQQSNSWPVHARGGGTK [Peptide IX, includes CDR3 of the light chain of mAb 248] | 4/5 | –
YYCQHIRELTRSEGGPS [Peptide V, includes CDR3 of the light chain of mAb 240] | 4/5 | 8/10
